Earlier results in patent publication US10463585B2, “Cosmetic compositions” (The Procter & Gamble Company, priority 2017, dated 2019).

Tested on: tyrosinase expression
Conditions: in vivo; background statement

For “PKEK (Artificial sequence is synthesized)”, the Tyrosinase expression is given as “reduce tyrosinase expression”.
